Measurements published in PubChem BioAssay AID1963975 (Molecular Pharmacology Branch, DTP, NCI, 2024).
pIC50: −log10 of the molar value.

System: 624824-186-R-J2-PDC multicell spheroids, viability
Assay: Anticancer human tumor 624824-186-R-J2-PDC patient-derived colon adenocarcinoma cell line growth inhibition [PI3K]
Conditions: for pIC50: curve of first compound; for viability, T/C: stronger effect = lower value; active = viability on the fitted dose curve at most 10% of control; inactive = the rest
Outline: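 Complex 3D spheroids (cancer cells + endothelial HUVEC + mesenchymal stem cells); drug pairs of targeted agent x inavolisib/alpelisib/duvelisib/copanlisib; half-log series from ~Cmax, max 10 microM if Cmax unknown; endpoint viability.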

[1] = second compound 0.0316 µM, first compound 0.0316 µM
[2] = second compound 0.0316 µM, first compound 0.1 µM
[3] = second compound 0.0316 µM, first compound 0.316 µM
[4] = second compound 0.0316 µM, first compound 1 µM
[5] = second compound 0.0316 µM, first compound 3.16 µM
[6] = second compound 0.0316 µM, first compound 10 µM
[7] = second compound 0.1 µM, first compound 0.0316 µM
[8] = second compound 0.1 µM, first compound 0.1 µM
[9] = second compound 0.1 µM, first compound 0.316 µM
[10] = second compound 0.1 µM, first compound 1 µM
[11] = second compound 0.1 µM, first compound 3.16 µM
[12] = second compound 0.1 µM, first compound 10 µM
[13] = second compound 0.316 µM, first compound 0.0316 µM
[14] = second compound 0.316 µM, first compound 0.1 µM
[15] = second compound 0.316 µM, first compound 0.316 µM
[16] = second compound 0.316 µM, first compound 1 µM
[17] = second compound 0.316 µM, first compound 3.16 µM
[18] = second compound 0.316 µM, first compound 10 µM
[19] = second compound 1 µM, first compound 0.0316 µM
[20] = second compound 1 µM, first compound 0.1 µM
[21] = second compound 1 µM, first compound 0.316 µM
[22] = second compound 1 µM, first compound 1 µM
[23] = second compound 1 µM, first compound 3.16 µM
[24] = second compound 1 µM, first compound 10 µM
[25] = second compound 3.16 µM, first compound 0.0316 µM
[26] = second compound 3.16 µM, first compound 0.1 µM
[27] = second compound 3.16 µM, first compound 0.316 µM
[28] = second compound 3.16 µM, first compound 1 µM
[29] = second compound 3.16 µM, first compound 3.16 µM
[30] = second compound 3.16 µM, first compound 10 µM
[31] = second compound 10 µM, first compound 0.0316 µM
[32] = second compound 10 µM, first compound 0.1 µM
[33] = second compound 10 µM, first compound 0.316 µM
[34] = second compound 10 µM, first compound 1 µM
[35] = second compound 10 µM, first compound 3.16 µM
[36] = second compound 10 µM, first compound 10 µM
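Also: spheroids exposed to agents for 7 days before viability read.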
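For viability, T/C in this document: 100% = DMSO vehicle treated spheroids.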

CC(Cn1ccc(-c2ccc(C#N)c(Cl)c2)n1)NC(=O)c1cc(C(C)O)[nH]n1 (stereo unspecified) + Cc1nc(NC(=O)N2CCCC2C(N)=O)sc1-c1ccnc(C(C)(C)C(F)(F)F)c1
inactive: viability, T/C [1] 85.3% | viability, T/C [2] 111% | viability, T/C [3] 70.8% | viability, T/C [4] 92.2% | viability, T/C [5] 93.3% | viability, T/C [6] 114% | viability, T/C [7] 102% | viability, T/C [8] 76.3% | viability, T/C [9] 74.3% | viability, T/C [10] 76.6% | viability, T/C [11] 88.2% | viability, T/C [12] 90% | viability, T/C [13] 96.9% | viability, T/C [14] 90.5% | viability, T/C [15] 86.1% | viability, T/C [16] 76.9% | viability, T/C [17] 82.5% | viability, T/C [18] 85.7% | viability, T/C [19] 88.6% | viability, T/C [20] 69.9% | viability, T/C [21] 71.5% | viability, T/C [22] 71.6% | viability, T/C [23] 87.9% | viability, T/C [24] 86.9% | viability, T/C [25] 80.5% | viability, T/C [26] 93% | viability, T/C [27] 89.7% | viability, T/C [28] 78.7% | viability, T/C [29] 80.2% | viability, T/C [30] 84.7% | viability, T/C [31] 64.8% | viability, T/C [32] 65.2% | viability, T/C [33] 74.8% | viability, T/C [34] 61.4% | viability, T/C [35] 69.6% | viability, T/C [36] 66.6%
< 5.00: pIC50 (second compound 0.0316 µM) | pIC50 (second compound 0.1 µM) | pIC50 (second compound 0.316 µM) | pIC50 (second compound 1 µM) | pIC50 (second compound 3.16 µM) | pIC50 (second compound 10 µM)

CC1(C)CCC(Nc2ncc(C(F)(F)F)c(-c3c[nH]c4c(P(C)(C)=O)c(C#N)ccc34)n2)CN1 (stereo unspecified) + Cc1nc(NC(=O)N2CCCC2C(N)=O)sc1-c1ccnc(C(C)(C)C(F)(F)F)c1
5.36: pIC50 (second compound 0.1 µM) | pIC50 (second compound 0.316 µM)
5.79: pIC50 (second compound 10 µM)
5.37: pIC50 (second compound 0.0316 µM)
5.33: pIC50 (second compound 1 µM)
5.44: pIC50 (second compound 3.16 µM)
inactive: viability, T/C [1] 81.3% | viability, T/C [2] 99.4% | viability, T/C [3] 103% | viability, T/C [4] 121% | viability, T/C [5] 64.8% | viability, T/C [7] 92.7% | viability, T/C [8] 92.9% | viability, T/C [9] 99.4% | viability, T/C [10] 108% | viability, T/C [11] 66.1% | viability, T/C [13] 100% | viability, T/C [14] 81.8% | viability, T/C [15] 92.1% | viability, T/C [16] 115% | viability, T/C [17] 67.6% | viability, T/C [19] 96% | viability, T/C [20] 93.4% | viability, T/C [21] 97.7% | viability, T/C [22] 93.6% | viability, T/C [23] 72% | viability, T/C [25] 79% | viability, T/C [26] 83.8% | viability, T/C [27] 91.4% | viability, T/C [28] 74% | viability, T/C [29] 57.3% | viability, T/C [31] 77.8% | viability, T/C [32] 73.8% | viability, T/C [33] 62% | viability, T/C [34] 54.5% | viability, T/C [35] 45.2%
active: viability, T/C [6] 7.6% | viability, T/C [12] 7.74% | viability, T/C [18] 6.46% | viability, T/C [24] 5.53% | viability, T/C [30] 5.49% | viability, T/C [36] 6.69%

Cn1nccc1Nc1nccc(-c2ccn(C(CO)c3ccc(Cl)c(F)c3)c(=O)c2)n1 (stereo unspecified) + Cc1nc(NC(=O)N2CCCC2C(N)=O)sc1-c1ccnc(C(C)(C)C(F)(F)F)c1
active: viability, T/C [36] 5.96%
inactive: viability, T/C [1] 88.2% | viability, T/C [2] 79.8% | viability, T/C [3] 72.2% | viability, T/C [4] 92% | viability, T/C [5] 95.7% | viability, T/C [6] 101% | viability, T/C [7] 68.3% | viability, T/C [8] 68.6% | viability, T/C [9] 78.5% | viability, T/C [10] 81.4% | viability, T/C [11] 108% | viability, T/C [12] 83.2% | viability, T/C [13] 90.1% | viability, T/C [14] 72.8% | viability, T/C [15] 74% | viability, T/C [16] 91.9% | viability, T/C [17] 96.3% | viability, T/C [18] 81.9% | viability, T/C [19] 82.9% | viability, T/C [20] 79% | viability, T/C [21] 65.5% | viability, T/C [22] 74.9% | viability, T/C [23] 76.3% | viability, T/C [24] 52.3% | viability, T/C [25] 80.5% | viability, T/C [26] 61.6% | viability, T/C [27] 65% | viability, T/C [28] 54.6% | viability, T/C [29] 44.2% | viability, T/C [30] 37.3% | viability, T/C [31] 66.4% | viability, T/C [32] 58.6% | viability, T/C [33] 47.8% | viability, T/C [34] 37.8% | viability, T/C [35] 19.2%
5.81: pIC50 (second compound 3.16 µM)
< 5.00: pIC50 (second compound 0.0316 µM) | pIC50 (second compound 0.1 µM) | pIC50 (second compound 0.316 µM) | pIC50 (second compound 1 µM)
6.56: pIC50 (second compound 10 µM)
